Reference: patent publication US20220370440A1 (Lead Discovery Center GmbH, priority 2018, published 2022)

Key:
A431 = A431 CellTiter-Glo; type: cell-based; conditions: Homo sapiens, A-431; 72 h compound incubation; read-out: A431 CTG IC50
Protocol: (§1) 2. Measurement of Cellular Activity
(§2) The CellTiter-Glo Luminescent Cell Viability Assay (Promega) is a homogeneous method of determining the number of viable cells in culture. It is based on quantification of ATP, indicating the presence of metabolically active cells. Cells are seeded on day 1 at cell numbers that assure assay linearity and optimal signal intensity. After incubation for 24 h in humidified chambers at 37° C. and 5% CO2, compounds in DMSO are added at different concentrations. Cells are further incubated for 72 h at 37° C. and 5% CO2. Cells treated with the compound vehicle DMSO are used as positive controls and cells treated with 10 μM Staurosporine serve as negative controls. At day 5 the CellTiter Glo Reagent is prepared according to the instructions of the kit (Promega Inc.): Reagent is mixed 1:1 with cell culture medium. Thereon, mixture and assay plates are equilibrated at room temperature for 20 min. Equal volumes of the reagent-medium-mixture is added to the volume of culture medium present in each well. The plates are mixed at ˜200 rpm for 2 minutes on an orbital shaker. The microplates are then incubated at room temperature for 10 minutes for stabilization of the luminescent signal. Following incubation the luminescence is recorded on a Victor microplate reader (Perkin Elmer) using a 200 ms integration time. The data is then analyzed with Excel using the XLFIT Plugin (dose response Fit 205) for IC50-determination. As quality control the Z′-factor is calculated from 16 positive and negative control values. Only assay results showing a Z′-factor ≥0.5 are used for further analysis.
(§3) Inhibition is indicated as […] [nM] (“−”=not measured). Compounds having an activity designated as “A” provided an IC50≤100 nM; compounds having an activity designated as “B” provided an 100 nM<IC50≤500 nM; compounds having an activity designated as “C” provided an 500 nM<IC50≤1000 nM; compounds having an activity designated as “D” provided an 1000 nM<IC50≤100000 nM; and compounds having an activity designated as “E” provided an IC50>10000 nM.

HER2 INS YVMA = molecular target: T1, HER2 INS YVMA (Homo sapiens, UniProt P04626, INS775YVMA); assay: Lance Kinase Activity Assay, HER2 INS YVMA (Her2 Exon 20 INSYVMA Lance); type: biochemical; conditions: biochemical Lance assay
T1 construct: purchased DPF
Protocol: 1. Measurement of HER2 INS YVMA Kinase Activity
This protocol describes how the Lance Kinase Activity Assay was performed to determine IC50 values of compounds of general formula (I) against HER2 INS YVMA. The principle behind this enzymatic assay is based upon the phosphorylation of the Ulight-peptide substrate. It is detected by using a specific EU-labeled anti-phospho peptide antibody. The binding of the Eu labeled anti-phospho peptide antibody to the phosphorylated ULight labeled peptide gives rise to a FRET-signal.
Binding of an inhibitor to the kinase prevents phosphorylation of the Ulight-substrate, resulting in a loss of FRET. In table 2 is summarized the relevant information for the LANCE assay.
The compounds of general formula (I) summarized in Table 3 were serial diluted from a 10 mM DMSO stock solution 1:3 over 8 steps in a total volume of 20 μl.
For every sample, 8 μl of kinase-substrate mix was transferred into a suitable assay plate (e.g. Corning #3673). Compound was added via pintool transfer (10 nl/well) using a Biomek FX robot (BeckmanCoulter). Reaction was started by addition of 2 μl ATP working solution and mixed using variomag teleshaker (Thermo Fischer Scientific). After 1 h incubation at room temperature the reaction was stopped with 10 μl detection mix containing the Eu-labeled phosphospecific antibody and 10 mM EDTA. After a second incubation period of 1 h at room temperature the FRET signal was measured at 340 nm excitation, 665 nm and 615 nm emission (for the ULight-substrate and Eu-AB, respectively) with an Envision spectrophotometer (Perkin Elmer, Waltham, Mass., USA) with 50 μs delay and 300 μs integration time. IC50 values were determined from the sigmoidal dose response curves with the software Quattro Workflow (Quattro GmbH, Munich, Germany).

[1] = molecular target: EGFR Exon 20 INSNPH Ba/F3 (Homo sapiens, UniProt P00533, DUP771-773, cells depend on it); assay: EGFR Exon 20 INSNPH Ba/F3 CellTiter-Glo; type: cell-based; conditions: CellTiter-Glo, 72 h, read-out: EGFR Exon 20 INSNPH Ba/F3 CTG IC50
Protocol: as §1, §2
(§4) Inhibition is indicated as IC50 [nM] (“−”=not measured). Compounds having an activity designated as “A” provided an IC50≤100 nM; compounds having an activity designated as “B” provided an 100 nM<IC50≤500 nM; compounds having an activity designated as “C” provided an 500 nM<IC50≤1000 nM; compounds having an activity designated as “D” provided an 1000 nM<IC50≤10000 nM; and compounds having an activity designated as “E” provided an IC50>10000 nM.

H1975 = H1975 CellTiter-Glo; type: cell-based; conditions: Homo sapiens, NCI-H1975; 72 h compound incubation; read-out: H1975 CTG IC50
Protocol: as §1, §2, §3

EGFR T790ML858R = EGFR T790ML858R (Homo sapiens, UniProt P00533, L858R/T790M); assay: EGFR T790ML858R Lance assay; type: biochemical
Protocol: as §3

[2] = molecular target: Her2 Exon 20 INSYVMA Ba/F3 (Homo sapiens, UniProt P04626, DUP772-775, cells depend on it); assay: Her2 Exon 20 INSYVMA Ba/F3 CellTiter-Glo; type: cell-based; conditions: CellTiter-Glo, 72 h, read-out: Her2 Exon 20 INSYVMA Ba/F3 CTG IC50
Protocol: as §1, §2, §4

EGFR wt = EGFR wt (Homo sapiens, UniProt P00533); assay: EGFR wt Lance assay; type: biochemical
Protocol: as §3

Chain of Her2 Exon 20 INSYVMA Ba/F3 (P04626 with tags, fused parts or gaps DUP772-775): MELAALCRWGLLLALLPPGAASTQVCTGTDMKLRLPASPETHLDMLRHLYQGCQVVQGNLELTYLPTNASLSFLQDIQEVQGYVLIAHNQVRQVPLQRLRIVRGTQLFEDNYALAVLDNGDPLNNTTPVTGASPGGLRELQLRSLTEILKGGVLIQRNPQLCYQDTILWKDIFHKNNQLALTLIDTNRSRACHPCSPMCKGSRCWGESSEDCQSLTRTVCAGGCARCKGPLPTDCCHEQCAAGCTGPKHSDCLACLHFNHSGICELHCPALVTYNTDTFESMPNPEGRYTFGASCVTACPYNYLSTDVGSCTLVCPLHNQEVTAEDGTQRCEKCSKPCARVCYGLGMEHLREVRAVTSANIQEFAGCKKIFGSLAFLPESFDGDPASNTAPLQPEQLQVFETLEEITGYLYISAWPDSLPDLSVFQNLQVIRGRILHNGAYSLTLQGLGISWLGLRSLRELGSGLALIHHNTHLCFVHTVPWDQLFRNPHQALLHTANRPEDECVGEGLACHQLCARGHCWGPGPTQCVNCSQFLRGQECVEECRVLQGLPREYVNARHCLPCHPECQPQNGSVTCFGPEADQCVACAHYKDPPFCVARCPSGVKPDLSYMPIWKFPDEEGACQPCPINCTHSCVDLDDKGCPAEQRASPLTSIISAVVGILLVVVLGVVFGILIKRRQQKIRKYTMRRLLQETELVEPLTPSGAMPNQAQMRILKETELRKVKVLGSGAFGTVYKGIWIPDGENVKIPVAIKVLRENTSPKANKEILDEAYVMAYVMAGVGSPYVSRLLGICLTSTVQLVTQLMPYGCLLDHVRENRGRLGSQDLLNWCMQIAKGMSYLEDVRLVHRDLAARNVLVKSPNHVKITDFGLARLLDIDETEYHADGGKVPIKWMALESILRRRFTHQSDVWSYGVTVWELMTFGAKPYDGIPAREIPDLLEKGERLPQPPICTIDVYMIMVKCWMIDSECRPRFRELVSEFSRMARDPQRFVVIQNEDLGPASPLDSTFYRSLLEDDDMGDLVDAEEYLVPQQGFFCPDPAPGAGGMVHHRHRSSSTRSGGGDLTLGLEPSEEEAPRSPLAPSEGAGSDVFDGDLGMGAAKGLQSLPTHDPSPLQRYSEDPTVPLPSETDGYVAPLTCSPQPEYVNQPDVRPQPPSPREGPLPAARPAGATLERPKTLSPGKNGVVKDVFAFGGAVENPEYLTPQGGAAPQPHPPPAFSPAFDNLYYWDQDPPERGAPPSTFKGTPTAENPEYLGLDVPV
Chain of EGFR wt (P00533 25-1210): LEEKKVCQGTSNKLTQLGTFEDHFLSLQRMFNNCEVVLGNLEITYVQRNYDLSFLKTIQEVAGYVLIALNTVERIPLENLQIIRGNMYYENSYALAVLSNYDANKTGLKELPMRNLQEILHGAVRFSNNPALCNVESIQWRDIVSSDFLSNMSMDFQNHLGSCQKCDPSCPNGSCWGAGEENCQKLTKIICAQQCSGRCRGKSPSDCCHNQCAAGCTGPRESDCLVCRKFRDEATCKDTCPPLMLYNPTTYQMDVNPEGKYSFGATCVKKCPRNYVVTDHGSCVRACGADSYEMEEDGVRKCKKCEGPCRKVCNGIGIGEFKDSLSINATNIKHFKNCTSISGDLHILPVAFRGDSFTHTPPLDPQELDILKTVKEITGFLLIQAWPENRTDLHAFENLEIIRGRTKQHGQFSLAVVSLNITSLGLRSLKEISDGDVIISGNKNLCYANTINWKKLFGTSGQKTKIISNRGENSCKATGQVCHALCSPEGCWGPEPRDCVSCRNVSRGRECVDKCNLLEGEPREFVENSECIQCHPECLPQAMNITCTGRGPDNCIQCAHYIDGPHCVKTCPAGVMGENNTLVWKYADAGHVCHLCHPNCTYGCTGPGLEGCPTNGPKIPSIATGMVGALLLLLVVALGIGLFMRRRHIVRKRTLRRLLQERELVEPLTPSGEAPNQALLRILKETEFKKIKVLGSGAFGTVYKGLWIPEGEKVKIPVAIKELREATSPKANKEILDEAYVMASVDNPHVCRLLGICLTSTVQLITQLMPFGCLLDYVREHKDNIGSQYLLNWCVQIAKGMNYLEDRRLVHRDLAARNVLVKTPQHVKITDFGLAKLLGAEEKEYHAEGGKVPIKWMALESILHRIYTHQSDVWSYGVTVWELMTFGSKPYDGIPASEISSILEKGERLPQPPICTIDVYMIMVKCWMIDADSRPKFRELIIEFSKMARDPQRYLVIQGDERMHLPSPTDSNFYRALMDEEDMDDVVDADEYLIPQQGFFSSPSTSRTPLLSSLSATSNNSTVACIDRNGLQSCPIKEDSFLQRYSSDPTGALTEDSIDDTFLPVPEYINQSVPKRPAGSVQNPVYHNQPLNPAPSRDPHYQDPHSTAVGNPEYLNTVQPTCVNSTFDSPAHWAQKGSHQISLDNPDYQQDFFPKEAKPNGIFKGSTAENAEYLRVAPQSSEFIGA
Chain of EGFR T790ML858R (P00533 25-1210 T790M/L858R): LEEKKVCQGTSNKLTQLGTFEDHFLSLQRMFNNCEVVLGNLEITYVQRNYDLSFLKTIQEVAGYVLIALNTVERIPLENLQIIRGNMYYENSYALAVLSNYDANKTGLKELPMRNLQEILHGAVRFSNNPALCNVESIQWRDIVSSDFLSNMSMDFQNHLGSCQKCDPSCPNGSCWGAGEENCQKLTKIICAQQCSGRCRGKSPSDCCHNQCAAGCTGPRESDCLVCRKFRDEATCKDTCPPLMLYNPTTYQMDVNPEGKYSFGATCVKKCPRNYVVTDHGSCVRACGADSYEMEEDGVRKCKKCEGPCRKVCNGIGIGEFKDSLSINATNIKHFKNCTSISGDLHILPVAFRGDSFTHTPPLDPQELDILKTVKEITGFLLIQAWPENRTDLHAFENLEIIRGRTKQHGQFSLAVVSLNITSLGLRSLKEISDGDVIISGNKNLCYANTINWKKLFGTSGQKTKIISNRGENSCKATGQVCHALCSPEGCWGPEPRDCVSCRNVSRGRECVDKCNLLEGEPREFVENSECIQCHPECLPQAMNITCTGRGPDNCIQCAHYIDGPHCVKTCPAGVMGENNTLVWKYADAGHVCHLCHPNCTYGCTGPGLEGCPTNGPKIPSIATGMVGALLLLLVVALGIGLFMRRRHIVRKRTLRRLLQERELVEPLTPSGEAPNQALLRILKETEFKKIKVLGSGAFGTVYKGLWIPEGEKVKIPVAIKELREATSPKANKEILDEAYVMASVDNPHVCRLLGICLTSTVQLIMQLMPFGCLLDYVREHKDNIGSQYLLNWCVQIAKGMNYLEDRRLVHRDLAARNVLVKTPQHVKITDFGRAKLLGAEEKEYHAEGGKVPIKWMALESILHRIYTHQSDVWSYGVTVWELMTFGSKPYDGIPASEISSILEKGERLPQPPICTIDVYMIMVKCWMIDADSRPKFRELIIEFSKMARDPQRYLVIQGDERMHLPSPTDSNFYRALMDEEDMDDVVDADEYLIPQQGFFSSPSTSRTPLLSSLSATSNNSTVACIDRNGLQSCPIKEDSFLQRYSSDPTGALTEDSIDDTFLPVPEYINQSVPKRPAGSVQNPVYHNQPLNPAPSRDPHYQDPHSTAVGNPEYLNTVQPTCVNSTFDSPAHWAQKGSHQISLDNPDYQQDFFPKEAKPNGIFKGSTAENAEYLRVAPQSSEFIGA
T1 sequence (P04626 with tags, fused parts or gaps INS775YVMA): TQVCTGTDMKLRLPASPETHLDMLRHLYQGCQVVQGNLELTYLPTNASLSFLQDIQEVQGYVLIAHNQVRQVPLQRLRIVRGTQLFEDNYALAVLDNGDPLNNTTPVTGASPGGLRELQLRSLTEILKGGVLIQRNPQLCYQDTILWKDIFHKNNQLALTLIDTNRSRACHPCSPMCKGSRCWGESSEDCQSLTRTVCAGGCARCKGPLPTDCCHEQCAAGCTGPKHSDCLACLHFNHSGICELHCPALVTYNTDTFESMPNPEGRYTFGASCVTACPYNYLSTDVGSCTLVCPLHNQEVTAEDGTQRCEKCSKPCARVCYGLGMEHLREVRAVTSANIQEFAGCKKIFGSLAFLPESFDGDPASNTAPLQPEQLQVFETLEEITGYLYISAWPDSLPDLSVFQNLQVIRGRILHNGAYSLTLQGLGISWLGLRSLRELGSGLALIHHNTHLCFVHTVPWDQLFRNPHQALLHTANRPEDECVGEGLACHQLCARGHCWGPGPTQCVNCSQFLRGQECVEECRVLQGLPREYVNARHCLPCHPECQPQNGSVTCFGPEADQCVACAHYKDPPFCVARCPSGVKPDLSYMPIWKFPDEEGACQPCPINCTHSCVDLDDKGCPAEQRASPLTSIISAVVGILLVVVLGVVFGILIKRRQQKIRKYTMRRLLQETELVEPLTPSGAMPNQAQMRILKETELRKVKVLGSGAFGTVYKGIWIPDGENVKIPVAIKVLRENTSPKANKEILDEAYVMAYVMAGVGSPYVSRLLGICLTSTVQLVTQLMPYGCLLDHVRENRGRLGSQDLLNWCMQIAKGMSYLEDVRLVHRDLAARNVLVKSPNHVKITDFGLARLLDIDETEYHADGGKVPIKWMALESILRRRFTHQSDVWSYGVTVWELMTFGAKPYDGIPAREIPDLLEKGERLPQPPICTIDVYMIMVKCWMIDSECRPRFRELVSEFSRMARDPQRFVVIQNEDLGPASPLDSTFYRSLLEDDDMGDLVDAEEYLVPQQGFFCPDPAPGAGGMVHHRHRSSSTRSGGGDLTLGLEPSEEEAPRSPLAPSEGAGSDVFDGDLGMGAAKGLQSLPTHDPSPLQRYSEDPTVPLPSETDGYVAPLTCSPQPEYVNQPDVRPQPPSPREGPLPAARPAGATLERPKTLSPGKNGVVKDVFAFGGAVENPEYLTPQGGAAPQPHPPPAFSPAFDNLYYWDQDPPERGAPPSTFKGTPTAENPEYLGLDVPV

C=CC(=O)Nc1cc(-c2c(-c3ccc(N(C)CCN(C)C)cc3)[nH]c3ncc(C(=O)O)cc23)ccc1C [Example 153, 3-(3-acrylamido-4-methylphenyl)-2-(4-((2-(dimethylamino)ethyl)(methyl)amino)phenyl)-1H-pyrrolo[2,3-b]pyridine-5-carboxylic acid 2,2,2-trifluoroacetate]
IC50 (A431): > 10000 nM
IC50 (HER2 INS YVMA): ≤ 100 nM
GI50 [1]: > 10000 nM
IC50 (H1975): > 10000 nM
IC50 (EGFR T790ML858R): ≤ 100 nM
GI50 [2]: > 10000 nM
IC50 (EGFR wt): ≤ 100 nM

C=CC(=O)Nc1cc(-c2c(-c3ccc(N4CCN(C)CC4)cc3)[nH]c3ncc(OCC)cc23)ccc1C [Example 193, N-(5-(5-ethoxy-2-(4-(4-methylpiperazin-1-yl)phenyl)-1H-pyrrolo[2,3-b]pyridin-3-yl)-2-methylphenyl)acrylamide 2,2,2-trifluoroacetate]
IC50 (A431): 1000 to 100000 nM
IC50 (HER2 INS YVMA): ≤ 100 nM
GI50 [1]: 100 to 500 nM
IC50 (H1975): 100 to 500 nM
IC50 (EGFR T790ML858R): ≤ 100 nM
GI50 [2]: ≤ 100 nM
IC50 (EGFR wt): ≤ 100 nM

C=CC(=O)Nc1cc(-c2c(-c3ccc(N4CCN(S(=O)(=O)CC)CC4)cc3)[nH]c3ncc(C(=O)OC(C)C)cc23)ccc1C [Example 184, isopropyl 3-(3-acrylamido-4-methylphenyl)-2-(4-(4-(ethylsulfonyl)piperazin-1-yl)phenyl)-1H-pyrrolo[2,3-b]pyridine-5-carboxylate]
IC50 (A431): > 10000 nM
IC50 (HER2 INS YVMA): 500 to 1000 nM
GI50 [1]: 1000 to 10000 nM
IC50 (H1975): 1000 to 100000 nM
IC50 (EGFR T790ML858R): 100 to 500 nM
GI50 [2]: 1000 to 10000 nM
IC50 (EGFR wt): ≤ 100 nM

C=CC(=O)Nc1cc(-c2c(-c3cccc(C(=O)NCCCN4CCN(CC)CC4)c3)[nH]c3nccc(Cl)c23)ccc1C [Example 54, 3-(3-(3-acrylamido-4-methylphenyl)-4-chloro-1H-pyrrolo[2,3-b]pyridin-2-yl)-N-(3-(4-ethylpiperazin-1-yl)propyl)benzamide]
IC50 (A431): 1000 to 100000 nM
IC50 (HER2 INS YVMA): 100 to 500 nM
GI50 [1]: 1000 to 10000 nM
IC50 (H1975): 100 to 500 nM
IC50 (EGFR T790ML858R): ≤ 100 nM
GI50 [2]: 1000 to 10000 nM
IC50 (EGFR wt): ≤ 100 nM

C=CC(=O)Nc1cc(-c2c(-c3cccc(N4CCN(C(C)=O)CC4)c3)[nH]c3ncc(C(=O)OC(C)C)cc23)ccc1C [Example 185, isopropyl 2-(3-(4-acetylpiperazin-1-yl)phenyl)-3-(3-acrylamido-4-methylphenyl)-1H-pyrrolo[2,3-b]pyridine-5-carboxylate]
IC50 (A431): > 10000 nM
IC50 (HER2 INS YVMA): 1000 to 10000 nM
GI50 [1]: 1000 to 10000 nM
IC50 (H1975): 1000 to 100000 nM
IC50 (EGFR T790ML858R): 500 to 1000 nM
GI50 [2]: 1000 to 10000 nM
IC50 (EGFR wt): ≤ 100 nM

C=CC(=O)Nc1cc(-c2c(-c3ccc(N4CCN(C)CC4)cc3)[nH]c3ncc(C(=O)OC4CCC4)cc23)ccc1C [Example 136, cyclobutyl 3-(3-acrylamido-4-methylphenyl)-2-(4-(4-methylpiperazin-1-yl)phenyl)-1H-pyrrolo[2,3-b]pyridine-5-carboxylate]
IC50 (A431): 1000 to 100000 nM
IC50 (HER2 INS YVMA): ≤ 100 nM
GI50 [1]: 100 to 500 nM
IC50 (H1975): 100 to 500 nM
IC50 (EGFR T790ML858R): ≤ 100 nM
GI50 [2]: 100 to 500 nM
IC50 (EGFR wt): ≤ 100 nM

C=CC(=O)Nc1cc(-c2c(-c3cccc(CN4CCN(C(C)=O)CC4)c3)[nH]c3ncc(C(=O)OC(C)C)cc23)ccc1C [Example 186, isopropyl 2-(3-((4-acetylpiperazin-1-yl)methyl)phenyl)-3-(3-acrylamido-4-methylphenyl)-1H-pyrrolo[2,3-b]pyridine-5-carboxylate]
IC50 (A431): 1000 to 100000 nM
IC50 (HER2 INS YVMA): 100 to 500 nM
GI50 [1]: 1000 to 10000 nM
IC50 (H1975): 1000 to 100000 nM
IC50 (EGFR T790ML858R): 100 to 500 nM
GI50 [2]: 1000 to 10000 nM
IC50 (EGFR wt): ≤ 100 nM

C=CC(=O)Nc1cc(-c2c(-c3ccc(OCCN(C)C)cc3)[nH]c3ncc(C(=O)OC(C)C)c(C)c23)ccc1C [Example 205, isopropyl 3-(3-acrylamido-4-methylphenyl)-2-(4-(2-(dimethylamino)ethoxy)phenyl)-4-methyl-1H-pyrrolo[2,3-b]pyridine-5-carboxylate]
IC50 (A431): 1000 to 100000 nM
IC50 (HER2 INS YVMA): ≤ 100 nM
GI50 [1]: ≤ 100 nM
IC50 (H1975): 100 to 500 nM
IC50 (EGFR T790ML858R): ≤ 100 nM
GI50 [2]: 100 to 500 nM
IC50 (EGFR wt): ≤ 100 nM

C=CC(=O)Nc1cc(-c2c(-c3ccc(N4CCN(C)CC4)cc3)[nH]c3ncc(C(=O)NCCc4ccc(F)cc4)cc23)ccc1C [Example 124, 3-(3-acrylamido-4-methylphenyl)-N-(4-fluorophenethyl)-2-(4-(4-methylpiperazin-1-yl)phenyl)-1H-pyrrolo[2,3-b]pyridine-5-carboxamide]
IC50 (A431): 500 to 1000 nM
IC50 (HER2 INS YVMA): 100 to 500 nM
GI50 [1]: 500 to 1000 nM
IC50 (H1975): 500 to 1000 nM
IC50 (EGFR T790ML858R): ≤ 100 nM
GI50 [2]: 100 to 500 nM
IC50 (EGFR wt): ≤ 100 nM

C=CC(=O)Nc1cc(-c2c(-c3ccc(N4CCN(C)CC4)cc3)[nH]c3nccc(Cl)c23)cc(C)c1C [Example 150, N-(5-(4-chloro-2-(4-(4-methylpiperazin-1-yl)phenyl)-1H-pyrrolo[2,3-b]pyridin-3-yl)-2,3-dimethylphenyl)acrylamide 2,2,2-trifluoroacetate]
IC50 (A431): 500 to 1000 nM
IC50 (HER2 INS YVMA): ≤ 100 nM
GI50 [1]: 100 to 500 nM
IC50 (H1975): ≤ 100 nM
IC50 (EGFR T790ML858R): ≤ 100 nM
GI50 [2]: 500 to 1000 nM
IC50 (EGFR wt): ≤ 100 nM

C=CC(=O)N1CCCc2ccc(-c3c(-c4ccc(CN5CCN(C)CC5)nc4)[nH]c4nccc(Cl)c34)cc21 [Example 89, 1-(7-(4-chloro-2-(6-((4-methylpiperazin-1-yl)methyl)pyridin-3-yl)-1H-pyrrolo[2,3-b]pyridin-3-yl)-3,4-dihydroquinolin-1(2H)-yl)prop-2-en-1-one]
IC50 (A431): 500 to 1000 nM
IC50 (HER2 INS YVMA): ≤ 100 nM
GI50 [1]: 100 to 500 nM
IC50 (H1975): 100 to 500 nM
IC50 (EGFR T790ML858R): ≤ 100 nM
GI50 [2]: 100 to 500 nM
IC50 (EGFR wt): ≤ 100 nM

C=CC(=O)Nc1cc(-c2c(-c3ccc(N4CCN(C)CC4)cc3)[nH]c3ncc(NC(C)=O)cc23)ccc1C [Example 201, N-(5-(5-acetamido-2-(4-(4-methylpiperazin-1-yl)phenyl)-1H-pyrrolo[2,3-b]pyridin-3-yl)-2-methylphenyl)acrylamide]
IC50 (A431): 1000 to 100000 nM
IC50 (HER2 INS YVMA): ≤ 100 nM
GI50 [1]: 1000 to 10000 nM
IC50 (H1975): 1000 to 100000 nM
IC50 (EGFR T790ML858R): ≤ 100 nM
GI50 [2]: 1000 to 10000 nM
IC50 (EGFR wt): ≤ 100 nM
